Structures can show the parent of a compound that is named as a salt.
Experiments:
[1] = target: E. coli β-glucuronidase (eβG) (Escherichia coli, UniProt P05804); test: Inhibition of purified recombinant eβG activity (pNPG substrate, OD420); type: biochemical; conditions: for remaining activity at 10 µM: read-out: Percent activity of E. coli-glucuronidase at 10 μM (%)
Experimental: (§1) The pyrazolo[4,3-c]quinoline derivatives were examined for their inhibition against eβG or hβG activity. Purified recombinant eβG or hβG proteins were incubated with serial dilution of the inhibitors, respectively. The βG activity was determined by color development of a βG substrate, pNPG. The hydrolysis product of pNPG, PNP was measured by OD420.

[2] = target: T1, human liver-glucuronidase (hβG) (Homo sapiens, UniProt P08236); test: Inhibition of purified recombinant hβG activity (pNPG substrate, OD420); type: biochemical; conditions: 10 μM, purified recombinant hβG, pNPG, means ± S.D. of at least three separate experiments; for remaining activity at 10 µM: read-out: Percent activity of human liver-glucuronidase at 10 μM (%)
T1 sequence (P08236 23-651): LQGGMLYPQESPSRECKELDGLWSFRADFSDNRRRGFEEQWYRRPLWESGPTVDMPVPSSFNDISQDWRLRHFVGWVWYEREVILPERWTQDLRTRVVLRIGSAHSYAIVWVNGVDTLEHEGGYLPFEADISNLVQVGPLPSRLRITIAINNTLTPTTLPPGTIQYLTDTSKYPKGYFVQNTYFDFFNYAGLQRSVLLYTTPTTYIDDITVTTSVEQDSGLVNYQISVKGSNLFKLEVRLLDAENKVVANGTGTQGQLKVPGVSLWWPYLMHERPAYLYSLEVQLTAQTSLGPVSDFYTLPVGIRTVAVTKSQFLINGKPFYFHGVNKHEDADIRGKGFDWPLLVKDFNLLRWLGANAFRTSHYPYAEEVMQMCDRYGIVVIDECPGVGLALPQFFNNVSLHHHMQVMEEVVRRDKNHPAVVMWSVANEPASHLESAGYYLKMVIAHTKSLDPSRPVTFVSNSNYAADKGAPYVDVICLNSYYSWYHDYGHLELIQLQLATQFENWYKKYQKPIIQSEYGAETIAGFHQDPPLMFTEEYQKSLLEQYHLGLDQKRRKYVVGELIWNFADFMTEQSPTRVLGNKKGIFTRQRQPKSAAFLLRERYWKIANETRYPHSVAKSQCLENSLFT
Experimental: as §1

E. coli β-glucuronidase (eβG), sequence (P05804 whole entry): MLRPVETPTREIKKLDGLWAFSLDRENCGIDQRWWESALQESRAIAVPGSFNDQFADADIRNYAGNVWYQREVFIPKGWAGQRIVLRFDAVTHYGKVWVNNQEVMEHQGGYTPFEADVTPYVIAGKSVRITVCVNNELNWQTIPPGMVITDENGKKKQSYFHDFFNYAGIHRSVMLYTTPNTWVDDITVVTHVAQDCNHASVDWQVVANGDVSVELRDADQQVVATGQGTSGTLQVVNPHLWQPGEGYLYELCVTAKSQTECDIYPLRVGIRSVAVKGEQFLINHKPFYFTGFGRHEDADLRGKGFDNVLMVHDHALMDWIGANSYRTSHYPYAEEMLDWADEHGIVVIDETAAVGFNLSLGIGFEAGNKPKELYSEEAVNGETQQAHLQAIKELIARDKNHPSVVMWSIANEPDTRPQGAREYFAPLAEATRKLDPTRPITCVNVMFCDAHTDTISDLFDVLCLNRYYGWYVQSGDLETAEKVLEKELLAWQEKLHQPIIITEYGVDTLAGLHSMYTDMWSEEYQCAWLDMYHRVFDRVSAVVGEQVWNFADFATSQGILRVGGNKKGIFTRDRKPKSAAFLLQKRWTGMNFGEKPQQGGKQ

Cc1ccc(Nc2nc3cc(F)ccc3c3[nH]nc(N)c23)cc1 (as salt: salt) [Compound 9, 7-Fluoro-N^4-(p-tolyl)-1H-pyrazolo[4,3-c]quinoline-3,4-diamine]
melting point: 246 to 247 °C

Nc1n[nH]c2c1c(Nc1ccc(Cl)cc1)nc1ccc(Cl)cc12 (as salt: salt) [Compound 10, 8-Chloro-N^4-(4-chlorophenyl)-1H-pyrazolo[4,3-c]quinoline-3,4-diamine]
melting point: 270 to 272 °C

Cc1ccc(Nc2nc3ccc(Cl)cc3c3[nH]nc(N)c23)cc1 (as salt: salt) [Compound 11, 8-Chloro-N^4-(p-tolyl)-1H-pyrazolo[4,3-c]quinoline-3,4-diamine]
melting point: 261 °C

CSc1ccc(Nc2nc3ccccc3c3[nH]nc(N)c23)cc1 (as salt: salt) [Compound 20, 3-Amino-4-(4-methylthiophenylamino)-1H-pyrazolo[4,3-c]quinoline]
melting point: 269 to 271 °C

Nc1n[nH]c2c1c(Nc1ccc([N+](=O)[O-])cc1)nc1ccccc12 (as salt: salt) [Compound 21, 3-Amino-4-(4-nitrophenylamino)-1H-pyrazolo[4,3-c]quinoline]
melting point: 303 to 305 °C

Nc1n[nH]c2c1c(Nc1ccc(C(=O)O)cc1)nc1ccccc12 (as salt: salt) [Compound 22, 4-(3-Amino-1H-pyrazolo[4,3-c]quinolin-4-ylamino)benzoic acid]
melting point: 362 to 364 °C

CC(=O)c1ccc(Nc2nc3ccccc3c3[nH]nc(N)c23)cc1 (as salt: salt) [Compound 23, 3-Amino-4-(4-acetylphenylamino)-1H-pyrazolo[4,3-c]quinoline]
melting point: 249 to 251 °C

Nc1n[nH]c2c1c(Nc1cccc(O)c1)nc1ccccc12 (as salt: salt) [Compound 24, 3-Amino-4-(3-hydroxyphenylamino)-1H-pyrazolo[4,3-c]quinoline]
melting point: 319 to 321 °C

Cc1cccc(Nc2nc3ccccc3c3[nH]nc(N)c23)c1 (as salt: salt) [Compound 25, N^4-(m-Tolyl)-1H-pyrazolo[4,3-c]quinoline-3,4-diamine]
melting point: 281 to 282 °C

Cc1cccc2c1nc(Nc1ccc(Cl)cc1)c1c(N)n[nH]c12 [Compound 6, N^4-(4-Chlorophenyl)-6-methyl-1H-pyrazolo[4,3-c]quinoline-3,4-diamine]
remaining activity at 10 µM [1]: 6 ± 1%
remaining activity at 10 µM [2]: 78.5 ± 0.71%
melting point: 249 to 250 °C

Cc1ccc(Nc2nc3c(C)cccc3c3[nH]nc(N)c23)cc1 [Compound 7, 6-Methyl-N^4-(p-tolyl)-1H-pyrazolo[4,3-c]quinoline-3,4-diamine]
remaining activity at 10 µM [1]: 3 ± 1%
remaining activity at 10 µM [2]: 74 ± 1%
melting point: 270 to 271 °C

Nc1n[nH]c2c1c(Nc1ccc(Cl)cc1)nc1cc(F)ccc12 [Compound 8, N^4-(4-Chlorophenyl)-7-fluoro-1H-pyrazolo[4,3-c]quinoline-3,4-diamine]
remaining activity at 10 µM [1]: 4 ± 1%
remaining activity at 10 µM [2]: 83.5 ± 0.71%
melting point: 254 °C (dec.)

Cc1ccc(Nc2nc3cc(F)ccc3c3[nH]nc(N)c23)cc1 [Compound 9, 7-Fluoro-N^4-(p-tolyl)-1H-pyrazolo[4,3-c]quinoline-3,4-diamine]
remaining activity at 10 µM [1]: 4 ± 1%
remaining activity at 10 µM [2]: 81.5 ± 0.71%

Nc1n[nH]c2c1c(Nc1ccc(Cl)cc1)nc1ccc(Cl)cc12 [Compound 10, 8-Chloro-N^4-(4-chlorophenyl)-1H-pyrazolo[4,3-c]quinoline-3,4-diamine]
remaining activity at 10 µM [1]: 3 ± 1%
remaining activity at 10 µM [2]: 77 ± 1.41%

Cc1ccc(Nc2nc3ccc(Cl)cc3c3[nH]nc(N)c23)cc1 [Compound 11, 8-Chloro-N^4-(p-tolyl)-1H-pyrazolo[4,3-c]quinoline-3,4-diamine]
remaining activity at 10 µM [1]: 3 ± 1%
remaining activity at 10 µM [2]: 80.5 ± 2.12%

Nc1n[nH]c2c1c(Nc1ccc(Cl)cc1)nc1ccc(Br)cc12 [Compound 12, 8-Bromo-N^4-(4-chlorophenyl)-1H-pyrazolo[4,3-c]quinoline-3,4-diamine]
remaining activity at 10 µM [1]: 5 ± 1%
remaining activity at 10 µM [2]: 79.3 ± 2.63%
melting point: 264 °C (dec.)

Cc1ccc(Nc2nc3ccc(Br)cc3c3[nH]nc(N)c23)cc1 [Compound 13, S-Bromo-N^4-(p-tolyl)-1H-pyrazolo[4,3-c]quinoline-3,4-diamine]
Percent activity of E. coli-glucuronidase at 10 μM (%) ([1]; 10 μM, purified recombinant eβG, pNPG, means ± S.D. of at least three separate experiments): 4 ± 1%
Percent activity of human liver-glucuronidase at 10 μM (%) [2]: 80.21 ± 2.14%

Nc1n[nH]c2c1c(Nc1ccccc1)nc1ccccc12 [Compound 14, 3-Amino-4-anilino-1H-pyrazolo[4,3-c]quinoline]
remaining activity at 10 µM [1]: 4 ± 1%
remaining activity at 10 µM [2]: 105.5 ± 0.71%
melting point: 256 to 258 °C

Nc1n[nH]c2c1c(Nc1ccc(O)cc1)nc1ccccc12 [Compound 15, 3-Amino-4-(4-hydroxyphenylamino)-1H-pyrazolo[4,3-c]quinoline]
remaining activity at 10 µM [1]: 7 ± 1%
remaining activity at 10 µM [2]: 95 ± 4.24%
melting point: 347 to 349 °C

Nc1ccc(Nc2nc3ccccc3c3[nH]nc(N)c23)cc1 [Compound 16, 3-Amino-4-(4-aminophenylamino)-1H-pyrazolo[4,3-c]quinoline]
remaining activity at 10 µM [1]: 8 ± 1%
remaining activity at 10 µM [2]: 82.5 ± 3.54%
melting point: 355 to 356 °C

Nc1n[nH]c2c1c(Nc1ccc(C(F)(F)F)cc1)nc1ccccc12 [Compound 18, 3-Amino-4-(4-trifluoromethylphenylamino)-1H-pyrazolo[4,3-c]quinoline]
remaining activity at 10 µM [1]: 4.5 ± 0.71%
remaining activity at 10 µM [2]: 106 ± 2.83%
melting point: 251 to 252 °C

COc1ccc(Nc2nc3ccccc3c3[nH]nc(N)c23)cc1 [Compound 19, 3-Amino-4-(4-methoxyphenylamino)-1H-pyrazolo[4,3-c]quinoline]
remaining activity at 10 µM [1]: 3 ± 1%
remaining activity at 10 µM [2]: 102 ± 2.12%
melting point: 228 to 230 °C

CSc1ccc(Nc2nc3ccccc3c3[nH]nc(N)c23)cc1 [Compound 20, 3-Amino-4-(4-methylthiophenylamino)-1H-pyrazolo[4,3-c]quinoline]
remaining activity at 10 µM [1]: 5 ± 1.41%
remaining activity at 10 µM [2]: 108 ± 3.54%

Nc1n[nH]c2c1c(Nc1ccc([N+](=O)[O-])cc1)nc1ccccc12 [Compound 21, 3-Amino-4-(4-nitrophenylamino)-1H-pyrazolo[4,3-c]quinoline]
remaining activity at 10 µM [1]: 46.5 ± 4.95%
remaining activity at 10 µM [2]: 90.86 ± 0.32%

Nc1n[nH]c2c1c(Nc1ccc(C(=O)O)cc1)nc1ccccc12 [Compound 22, 4-(3-Amino-1H-pyrazolo[4,3-c]quinolin-4-ylamino)benzoic acid]
remaining activity at 10 µM [1]: 15.5 ± 1.71%
remaining activity at 10 µM [2]: 95 ± 4.24%

CC(=O)c1ccc(Nc2nc3ccccc3c3[nH]nc(N)c23)cc1 [Compound 23, 3-Amino-4-(4-acetylphenylamino)-1H-pyrazolo[4,3-c]quinoline]
remaining activity at 10 µM [1]: 3 ± 1%
remaining activity at 10 µM [2]: 104 ± 1.41%

Nc1n[nH]c2c1c(Nc1cccc(O)c1)nc1ccccc12 [Compound 24, 3-Amino-4-(3-hydroxyphenylamino)-1H-pyrazolo[4,3-c]quinoline]
remaining activity at 10 µM [1]: 13.5 ± 0.71%
remaining activity at 10 µM [2]: 105 ± 1.41%

Cc1cccc(Nc2nc3ccccc3c3[nH]nc(N)c23)c1 [Compound 25, N^4-(m-Tolyl)-1H-pyrazolo[4,3-c]quinoline-3,4-diamine]
remaining activity at 10 µM [1]: 69.9 ± 0.02%
remaining activity at 10 µM [2]: 102 ± 2.08%

Nc1n[nH]c2c1c(Nc1cccc(Cl)c1)nc1ccccc12 [Compound 26, N^4-(3-Chlorophenyl)-1H-pyrazolo[4,3-c]quinoline-3,4-diamine]
remaining activity at 10 µM [1]: 14.9 ± 2.31%
remaining activity at 10 µM [2]: 97.78 ± 0.01%
melting point: 227 to 229 °C

COc1cccc(Nc2nc3ccccc3c3[nH]nc(N)c23)c1 [Compound 27, 3-Amino-4-(3-methoxyphenylamino)-1H-pyrazolo[4,3-c]quinoline]
remaining activity at 10 µM [1]: 8 ± 1.41%
remaining activity at 10 µM [2]: 107 ± 1.41%
melting point: 184 to 186 °C

CC(=O)c1cccc(Nc2nc3ccccc3c3[nH]nc(N)c23)c1 [Compound 28, 3-Amino-4-(3-acetylphenylamino)-1H-pyrazolo[4,3-c]quinoline]
remaining activity at 10 µM [1]: 91 ± 1%
remaining activity at 10 µM [2]: 93 ± 2.83%
melting point: > 380 °C

O=C(Nc1ccccc1)Nc1n[nH]c2c1c(=O)[nH]c1ccccc12 [Compound 34, 1-(4-oxo-4,5-dihydro-1H-pyrazolo[4,3-c]quinolin-3-yl)-3-phenylurea]
remaining activity at 10 µM [1]: 86 ± 1%
remaining activity at 10 µM [2]: 82 ± 1.41%

CCOc1ccc(NC(=S)N(CCO)Cc2cc3cc(C)cc(C)c3[nH]c2=O)cc1 [βG-Inh, 1-((6,8-Dimethyl-2-oxo-1,2-dihydroquinolin-3-yl)methyl)-3-(4-ethoxyphenyl)-1-(2-hydroxyethyl) thiourea, reference compound]
remaining activity at 10 µM [1]: 3 ± 1%

Source: US11052072B2, “Pyrazolo[4,3-C] quinoline derivatives for inhibition of β-glucuronidase” (Kaohsiung Medical University, priority 2015, dated 2021)
